The target of this experiment is NE uptake (Rattus norvegicus, UniProt Q63380). Description: Neurotransmitter uptake inhibition: NE uptake, crude synaptosomal preparation. The class given is biochemical. To be noted: rat cortex crude synaptosomal preparation; for IC50: 0.1 μM 3H-NE, 37° C. for 6 minutes. On the procedure:
Male Sprague-Dawley rats (180-260 g, Charles River) were used in all neurochemical assays. Rats were housed in temperature-controlled quarters on a 12 hr light/12 hr dark cycle with free access to food and water.
Neurotransmitter Uptake Inhibition
Uptake experiments were performed using a crude synaptosomal preparation made from the brain tissue of adult male Sprague-Dawley rats. The cortex of 1 rat for NE and 5-HT uptake was removed on ice and homogenized in 20 volumes of 0.32 M sucrose/g tissue weight using a Potter-Elvehjem teflon homogenizer (3 strokes at 840 rpm). The homogenate was then centrifuged for 12 minutes at 1,000×g at 0-4° C. The resulting supernatant was decanted into a chilled glass beaker and kept on ice until assayed. Protein concentration was determined by the method of Lowry et al. (1).
For these experiments, all compounds were run in duplicate in concentrations of 0.003-30.0 μM. Each tube received buffer (790 μl in drug tubes, 800 μl in control tubes), 10 μl of drug or standard. (0.1 μM DMI for NE uptake and 3.0 μM zimelidine HCl for 5-HT uptake), 100 μl isotope (0.1 μM ^3H—NE and 0.05 μM ^14C-5-HT), and 100 μl tissue. Tubes were incubated at 37° C. for 6 minutes. Incubation was terminated by the addition of 2.5 ml buffer followed by vacuum filtration using a Brandel filtration manifold with Whatman GF/B glass fiber filters and a second wash with 2.5 ml buffer. Filters were added to 10 ml Hydrofluor, shaken for 15 minutes and counted in a Packard 460CD scintillation counter equipped with dual-label dpm data reduction. Results were expressed as pmol uptake/mg protein/min.

Where a name gives a salt, the structure may show the parent alone.

NE uptake, sequence (Q63380 1-617): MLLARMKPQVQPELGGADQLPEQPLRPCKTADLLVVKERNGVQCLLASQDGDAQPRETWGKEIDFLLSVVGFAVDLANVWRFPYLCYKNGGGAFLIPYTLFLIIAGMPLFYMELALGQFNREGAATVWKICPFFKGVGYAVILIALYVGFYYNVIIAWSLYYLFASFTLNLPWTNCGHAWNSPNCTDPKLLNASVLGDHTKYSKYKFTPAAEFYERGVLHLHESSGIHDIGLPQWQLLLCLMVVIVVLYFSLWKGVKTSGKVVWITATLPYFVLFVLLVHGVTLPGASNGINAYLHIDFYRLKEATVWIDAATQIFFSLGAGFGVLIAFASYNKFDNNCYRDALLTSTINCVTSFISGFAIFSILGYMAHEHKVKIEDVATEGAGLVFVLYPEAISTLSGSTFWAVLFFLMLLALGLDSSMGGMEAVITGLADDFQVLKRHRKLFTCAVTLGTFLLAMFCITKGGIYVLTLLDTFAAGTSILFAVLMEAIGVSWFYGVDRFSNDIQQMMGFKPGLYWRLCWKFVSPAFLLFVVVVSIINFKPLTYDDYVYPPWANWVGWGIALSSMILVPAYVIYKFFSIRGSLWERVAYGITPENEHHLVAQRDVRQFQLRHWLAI

Usually IC50 stands for the concentration needed to halve the response being measured. Low values mean greater potency, high ones weaker potency. As to `CN(C)C[C@H](c1ccc(O)cc1)C1(O)CCCCC1` [(+)O-Desmethyl venlafaxine, S (+)-4-[2-(Dimethylamino)-1-(1-hydroxycyclohexyl)ethyl]phenol fumarate hydrate salt], the half-maximal inhibitory concentration (IC50) worked out at 720 nM. `CN(C)C[C@@H](c1ccc(O)cc1)C1(O)CCCCC1` [(−)O-Desmethyl venlafaxine, R(−)-4-[2-(Dimethylamino)-1-(1-hydroxycyclohexyl)ethyl]phenol fumarate hydrate salt]: the IC50 came to 270 nM. A word on the inhibition: it is the percentage by which the read-out fell short of the control. Low values mean little suppression, high ones strong suppression. In turn, `CN(C)CC(c1ccc(O)cc1)C1(O)CCCCC1` (racemic) [O-Desmethyl venlafaxine, 4-[1-(2-dimethylamino)-2-(1-hydroxycyclohexyl)-ethyl]-phenol] registered an inhibition at 0.3 µM (at 0.3 μM) of 75%.

Source of the values: patent US20040176468A1 (Wyeth, priority 1999, published 2004).
